Columns and labels:
[1] = melt phase, 78 and 90° C. for 24, 72 or 137 hrs
Method: Samples intended to degrade under en inert atmosphere were flushed with nitrogen for 5 minutes before closing with a stepper.
The samples were introduced into a pre-heated oven and held at a constant temperature of 78 and 90° C. for 24, 72 or 137 hrs. After completion of the treatment the samples were refrigerated and analyzed.

[2] = in vivo; cited from earlier work

formation of R(+)-N-methyl-PAI (summary of Table 1) [1]: no R(+)-N-methyl-PAI was formed
SMILES: C#CCN[C@@H]1CCc2ccccc21 [rasagiline, R(+)-N-propargyl-1-aminoindan]
absolute bioavailability [2]: about 36%
